Patent publication EP0006845A1, “Pharmaceutical composition comprising a 5-aroyl-1-C1-5 alkyl-pyrrole-2-acetic acid compound and acetaminophen or acetylsalicylic acid” (McNeilab, Inc., priority 1978, dated 1980)

Columns and labels:
adjuvant arthritic rats [1] = assay: adjuvant arthritis test, evaluation of paw volume of the non-injected hind paw; type: in vivo, female Wistar, Lewis rats; conditions: for inhibition at 75 mg/kg: Aspirin 75 mg/kg/day alone; for inhibition at 150 mg/kg: Aspirin 150 mg/kg/day alone; for inhibition at 300 mg/kg: Aspirin 300 mg/kg/day alone; for inhibition at 50 mg/kg: Acetaminophen 50 mg/kg/day alone; for inhibition at 200 mg/kg: Acetaminophen 200 mg/kg/day alone; for inhibition at 800 mg/kg: Acetaminophen 800 mg/kg/day alone
Description: (§1) The efficacy of the novel combination of this invention in inhibiting inflammation and osteogenic degeneration is particularly seen in the adjuvant arthritis test. […] The adjuvant arthritis test, a test in which adjuvant arthritis which results both in inflammation and osteogenic changes is induced by Mycobacterium butvricum and in which the effect of the test compounds on each effect can be Determined, is considered to be .most useful for evaluation of compounds which may be suitable for the treatment of rheumatoid arthritis and other arthritic diseases. The test procedure, in which the effect on inflammation is determined by paw volume changes and the effect on osteogenic changes is determined by microscopic observation, is described by Wong et al, in J. Pharmacol.Exp.Ther. 185, 127-138, 1973, and is employed in the present determination of the potentiation of the antiarthritic properties of 5-aroyl-l-loweralkyl-pyrrole-2-acetic acid derivatives by aspirin or acetaminophen.
(§2) Briefly, in this procedure, adjuvant arthritis is induced in female Wistar, Lewis rats (Charles River Breeding Laboratories. Inc., Wiimington, Mass.) weighing 160-190 gm by a single subcutaneous injection of 0.75 mg Mycobacterium butyricum (Difco) into the left hind paw. The non-injected hind paw remains a normal size for the first seven days. Swelling begins to appear in the non-injected paw of the first rats on Day 8. Using the paw volume determination technique (a technique in which rat paws are dippedin mercury to the hairline and the volume of displacement determined by a modified Van Arman mercury displacement method as described in the aforementioned paper of Wong et al), the time progress curve of volume changes in the non-injected (contralateral) paw is followed. […] The mean onset time for 100 rats is found to be 11.6 days with a standard deviation of 1.9 days and the frequency of onset time values distributed normally between Days 8 and 19. Thus, determinations of antiarthritic activity are made in the period Day 11 to Day 28.
(§3) For determination of anti-inflammatory properties two different evaluations are made: (a) the evaluation of paw volume during the Phase II and Phase III periods and, (b) the evaluation of osteogenic (bone) degenration during the Phase IV period.
For evaluation of paw volume, adjuvant arthritic rats with early but significant signs of arthritis in the contralateral paw are selected on Day 11 and randomly assigned to the various groups of 10 animals in each group. All test -animals are dosed-daily (per os) with the test compound, preferably as sodium salt, or in saline for 17 days (Days 11 to 27 inclusive). Control animals are dosed with an equivalent volume of saline. The paw volumes of the non-injected paws are determined initially on Day 11 and again on Days 15, 18, 22, 25, and 28. The paw volumes are then compared with normal paw volumes of adjuvant arthitic rats previously determined from a reference curve relating normal paw volume to body weight. The volume of each individual rat which is greater than the normal volume is utilized in the analysis of the data. Values for drug treated animals are expressed as a percent inhibition of the paw volume change relative to the mean value for saline controls. Data is evaluated statistically and ED50 values with 95 percent confidence limits are calculated. The method for statistical analysis is described in detail in the aforementioned paper of Wong et al. The term "ED50" refers to the dose of drug required to produce 50 percent antagonism of the paw volume changes observed in the saline treated adjuvant arthritis controls. Suppression of paw volume changes reflects anti-inflammatory and antiarthritic activity of a test drug.

adjuvant arthritic rats [2] = assay: adjuvant arthritis test, evaluation of bone degeneration (osteogenic changes) in the non-injected hind paw; type: in vivo, female Wistar, Lewis rats; conditions: for ED50: drug alone, suppression of osteogenic changes, data from several experiments pooled, read-out: ED50 and 95 percent C.L.
Description: as §1, §2, §3
For evaluation of bone degenerations, normal and adjuvant arthritic rats are sacrificed under C02, after the paw volume measurements have been completed on Day 28. The hind legs are removed above the knees and skinned and the soft tissues dissected away with care to avoid injury to bone and articular structures. The leg bones are then immersed in 2 percent potassium hydroxide solution for approximately four to five days until the remaining soft tissues becomes properly macerated and/or transparent, and the bones are fully visible. The leg bones are stained with Alizarin Red (0.01 percent in 2 percent KOH) for eight hours, and then processed through increasing concentrations of glycerol in water (20, 40, 60, 80 and 100 percent) for purposes of clearing the tissues for microscopic observation. The distal end of the tibiae, the tarsals, metatarsals, phalanges, and sesamoids are evaluated under a Stereozoom Microscope (a special type of dissecting microscope, product of Bausch and Lomb).
Osteogenic changes for each bone (in 31 bone categories) in the non-injected hind paw are graded on a scale of from 0 to 10 (increasing numerical value corresponding to increasing severity of bone degeneration). A total bone degeneration score is obtained (maximum score/paw = 310 points) and then expressed as a percent score. The mean percent score (95 percent confidence limits) for saline control groups from 26 experiments (184 animals) is found to be 53.4 (50.9-55.9). Percent score values for drug treated animals are expressed as a percent inhibition relative to the mean for the saline control group. Data is evaluated statistically and ED50 values with 95 percent confidence limits are calculated.

[3] = Rattus norvegicus, 672 h, Day 28, read-out: Percent Inhibition ± S.E. (Day 28)
[4] = Rattus norvegicus, 672 h, Table VIII, Day 28, read-out: Percent Inhibition ± S.E. (Day 28)
[5] = Rattus norvegicus, 672 h, Table IX, Day 28, read-out: Percent Inhibition ± S.E. (Day 28)
[6] = Rattus norvegicus, read-out: Percent Inhibition of Paw Volume ± S.E.

## Cc1cc(CC(=O)O)n(C)c1C(=O)c1ccc(Cl)cc1 [1,4-dimethyl-5-p-chlorobenzoyl-pyrrole-2-acetic acid]
Adjuvant arthritic rats [1]; Rattus norvegicus, 672 h, Table VII, ED50 of the pyrrole compound without acetaminophen, Day 28, read-out: ED50
  ED50: 0.4 mg/kg
Adjuvant arthritic rats [1]; Rattus norvegicus, 672 h, Table VII, pyrrole compound 0.11 mg/kg/day alone, Day 28, read-out: Percent Inhibition ± S.E. (Day 28)
  inhibition at 0.11 mg/kg/day: 27.4 ± 10.1%
Adjuvant arthritic rats [1]; Rattus norvegicus, 672 h, Table VII, pyrrole compound 0.33 mg/kg/day alone, Day 28, read-out: Percent Inhibition ± S.E. (Day 28)
  inhibition at 0.33 mg/kg/day: 45 ± 6%
Adjuvant arthritic rats [1]; Rattus norvegicus, 672 h, Table VII, pyrrole compound 1.0 mg/kg/day alone, Day 28, read-out: Percent Inhibition ± S.E. (Day 28)
  inhibition at 1 mg/kg/day: 68 ± 7.8%
Adjuvant arthritic rats [1]; Rattus norvegicus, 672 h, Table VIII, ED50 of the pyrrole compound without Aspirin, Day 28, read-out: ED50
  ED50: 0.728 mg/kg
Adjuvant arthritic rats [1]; Rattus norvegicus, 672 h, Table VIII, pyrrole compound 0.125 mg/kg/day alone, Day 28, read-out: Percent Inhibition ± S.E. (Day 28)
  inhibition at 0.125 mg/kg/day: 17.5 ± 7.5%
Adjuvant arthritic rats [1]; Rattus norvegicus, 672 h, Table VIII, pyrrole compound 0.5 mg/kg/day alone, Day 28, read-out: Percent Inhibition ± S.E. (Day 28)
  inhibition at 0.5 mg/kg/day: 43.8 ± 11.8%
Adjuvant arthritic rats [1]; Rattus norvegicus, 672 h, Table VIII, pyrrole compound 2.0 mg/kg/day alone, Day 28, read-out: Percent Inhibition ± S.E. (Day 28)
  inhibition at 2 mg/kg/day: 68.2 ± 5.3%

## CC(=O)Oc1ccccc1C(=O)O [Aspirin, acetylsalicylic acid]
Adjuvant arthritic rats [2]; Rattus norvegicus, bone degeneration, Aspirin 25 mg/kg/day alone, read-out: Percent Inhibition ± S. E.
  inhibition at 25 mg/kg: 15.2 ± 12.6%
Adjuvant arthritic rats [2]; Rattus norvegicus, bone degeneration, Aspirin 75 mg/kg/day alone, read-out: Percent Inhibition ± S. E.
  inhibition at 75 mg/kg: 29.5 ± 5.6%
Adjuvant arthritic rats [2]; Rattus norvegicus, bone degeneration, Aspirin 100 mg/kg/day alone, read-out: Percent Inhibition ± S. E.
  inhibition at 100 mg/kg: 28.3 ± 8.2%
Adjuvant arthritic rats [2]; Rattus norvegicus, bone degeneration, Aspirin 150 mg/kg/day alone, read-out: Percent Inhibition ± S. E.
  inhibition at 150 mg/kg: 22.9 ± 3.1%
Adjuvant arthritic rats [2]; Rattus norvegicus, bone degeneration, Aspirin 300 mg/kg/day alone, read-out: Percent Inhibition ± S. E.
  inhibition at 300 mg/kg: 59.9 ± 5.4%
Adjuvant arthritic rats [2]; Rattus norvegicus
  ED50: 382 mg/kg
Adjuvant arthritic rats [2]; bone degeneration, Aspirin 25 mg/kg/day alone
  Percent Inhibition ± S. E.: 20.1 ± 5.2%
Adjuvant arthritic rats [1]; Aspirin given in combination with tolmetin
  dose of Aspirin required to suppress the tolmetin ED50 by 50 percent: 83.6 (60.5 - 101) mg/kg/day
Adjuvant arthritic rats [1]; Rattus norvegicus, 672 h, Aspirin 25 mg/kg/day alone, Day 28, read-out: Percent Inhibition ± S.E. (Day 28)
  inhibition at 25 mg/kg: 16.4 ± 11.4%
Adjuvant arthritic rats [1]; [3]
  inhibition at 75 mg/kg: 39.6 ± 3.6%
  inhibition at 150 mg/kg: 34.2 ± 6%
  inhibition at 300 mg/kg: 66.2 ± 6.3%
Adjuvant arthritic rats [1]; Rattus norvegicus, 672 h, Aspirin 100 mg/kg/day alone, Day 28, read-out: Percent Inhibition ± S.E. (Day 28)
  inhibition at 100 mg/kg: 28.3 ± 8.2%
Adjuvant arthritic rats [1]; [4]
  inhibition at 75 mg/kg: 4.1 ± 14.4%
  inhibition at 150 mg/kg: 33.2 ± 7.6%
  inhibition at 300 mg/kg: 28.9 ± 9.4%
Adjuvant arthritic rats [1]; Rattus norvegicus, aspirin alone, data from several similar experiments pooled, read-out: ED50 and its 95 percent C.L.
  ED50: 322 mg/kg

## CC(=O)Nc1ccc(O)cc1 [Acetaminophen, acetaminophen]
Adjuvant arthritic rats [2]; Rattus norvegicus, Acetaminophen 50 mg/kg/day alone, read-out: Percent Inhibition of Bone Degeneration ± S.E.
  inhibition at 50 mg/kg: 0%
Adjuvant arthritic rats [2]; Rattus norvegicus, Acetaminophen 200 mg/kg/day alone, read-out: Percent Inhibition of Bone Degeneration ± S.E.
  inhibition at 200 mg/kg: 12.6 ± 6.5%
Adjuvant arthritic rats [2]; Rattus norvegicus, Acetaminophen 800 mg/kg/day alone, read-out: Percent Inhibition of Bone Degeneration ± S.E.
  inhibition at 800 mg/kg: 32.9 ± 3.4%
Adjuvant arthritic rats [2]; Rattus norvegicus
  ED50: 1670 mg/kg
Adjuvant arthritic rats [1]; [5]
  inhibition at 50 mg/kg: 7.6 ± 6.1%
  inhibition at 200 mg/kg: 29 ± 12.8%
  inhibition at 800 mg/kg: 75.3 ± 3.9%
Adjuvant arthritic rats [1]; [6]
  inhibition at 50 mg/kg: 0%
  inhibition at 200 mg/kg: 27.2 ± 15.5%
  inhibition at 800 mg/kg: 67.8 ± 5.7%
Adjuvant arthritic rats [1]; Rattus norvegicus, po, 672 h, drug given alone per os, Day 28, read-out: ED50 Values and 95 Percent C.L.
  ED50: 576 mg/kg
Adjuvant arthritic rats [1]; Rattus norvegicus, given alone, statistically significant difference (p<0.05) from saline treated controls, read-out: minimum effective dose (MED)
  minimal effective dose: 320 mg/kg/day
Adjuvant arthritic rats [1]; Table VII, Dose of Acetaminophen 100 alone, Day 28
  Percent Inhibition ± S.E. (Day 28): 2.7 ±17.4%
Adjuvant arthritic rats [1]; Table VII, Dose of Acetaminophen 200 alone, Day 28
  Percent Inhibition ± S.E. (Day 28): 6.6 ± 11.4%
Adjuvant arthritic rats [1]; Table VII, Dose of Acetaminophen 400 alone, Day 28
  Percent Inhibition ± S.E. (Day 28): 31.6 ± 6.1%
Adjuvant arthritic rats [1]; acetaminophen given with tolmetin
  dose of acetaminophen required to suppress the tolmetin ED50 by 50 percent: 35.3 (13.4-81.3) mg/kg/day

## Cn1c(CC(=O)O)cc(Cl)c1C(=O)c1ccc(Cl)cc1 [4-chloro-5-p-chlorobenzoyl-1-nethyl-pyrrole-2-acetic acid]
Adjuvant arthritic rats [1]; Rattus norvegicus, 672 h, Table IX, ED50 of the pyrrole compound without acetaminophen, Day 28, read-out: ED50
  ED50: 0.054 mg/kg
Adjuvant arthritic rats [1]; Rattus norvegicus, 672 h, Table IX, pyrrole compound 0.02 mg/kg/day alone, Day 28, read-out: Percent Inhibition ± S.E. (Day 28)
  inhibition at 0.02 mg/kg/day: 18.6 ± 11.7%
Adjuvant arthritic rats [1]; Rattus norvegicus, 672 h, Table IX, pyrrole compound 0.06 mg/kg/day alone, Day 28, read-out: Percent Inhibition ± S.E. (Day 28)
  inhibition at 0.06 mg/kg/day: 61.3 ± 5.3%
Adjuvant arthritic rats [1]; Rattus norvegicus, 672 h, Table IX, pyrrole compound 0.18 mg/kg/day alone, Day 28, read-out: Percent Inhibition ± S.E. (Day 28)
  inhibition at 0.18 mg/kg/day: 78.9 ± 8.7%
